Measured values: patent US9533961B2, “Molecules having certain pesticidal utilities, and intermediates, compositions, and processes related thereto” (priority 2014, dated 2017)

How the values were obtained:
Format in all cases: in vivo
[1] = test system: Beet Armyworm (Spodoptera exigua, LAPHEG) ("BAW"); assay: Bioassay on Beet Armyworm (BAW), 128-well diet tray assay; conditions: 168 h, 50 μg/cm^2 on artificial diet, second instar larvae, five to seven days, 25° C., average of eight wells, read-out: BAW % Control (or Mortality) rating
Procedure: (§1) Certain molecules disclosed in this document were tested against BAW and CEW using procedures described in the following examples. In the reporting of the results, the “BAW & CL Rating Table” was used (See Table Section).
Bioassays on BAW were conducted using a 128-well diet tray assay. one to five second instar BAW larvae were placed in each well (3 mL) of the diet tray that had been previously filled with 1 mL of artificial diet to which 50 μg/cm^2 of the test compound (dissolved in 50 μL of 90:10 acetone-water mixture) had been applied (to each of eight wells) and then allowed to dry. Trays were covered with a clear self-adhesive cover and held at 25° C., 14:10 light-dark for five to seven days. Percent mortality was recorded for the larvae in each well; activity in the eight wells was then averaged. The results are indicated in the table entitled “Table ABC: Biological Results” (See Table Section).

[2] = test system: Cabbage Looper (Trichoplusia ni, TRIPNI) ("CL"); assay: Bioassay on Cabbage Looper (CL), 128-well diet tray assay; conditions: 168 h, read-out: CL % Control (or Mortality) rating
Procedure: as §1
Bioassays on CL were conducted using a 128-well diet tray assay. one to five second instar CL larvae were placed in each well (3 mL) of the diet tray that had been previously filled with 1 mL of artificial diet to which 50 μg/cm^2 of the test compound (dissolved in 50 μL of 90:10 acetone-water mixture) had been applied (to each of eight wells) and then allowed to dry. Trays were covered with a clear self-adhesive cover and held at 25° C., 14:10 light-dark for five to seven days. Percent mortality was recorded for the larvae in each well; activity in the eight wells was then averaged. The results are indicated in the table entitled “Table ABC: Biological Results” (See Table Section).

[3] = test system: Yellow Fever Mosquito (Aedes aegypti, AEDSAE) ("YFM"); assay: Bioassay on Yellow Fever Mosquito (YFM), 96-well plate larval assay; conditions: about 1 day-old larvae, from 4000 ppm master plate, scored on mortality after 3 days
Procedure: Certain molecules disclosed in this document were tested against YFM using procedures described in the following paragraph. In the reporting of the results, the “YFM Rating Table” was used (See Table Section).
Master plates containing 400 μg of a molecule dissolved in 100 μL of dimethyl sulfoxide (DMSO) (equivalent to a 4000 ppm solution) are used. A master plate of assembled molecules contains 15 μL per well. To this plate, 135 μL of a 90:10 water:acetone mixture is added to each well. A robot (Biomek® NXP Laboratory Automation Workstation) is programmed to dispense 15 μL aspirations from the master plate into an empty 96-well shallow plate (“daughter” plate). There are 6 reps (“daughter” plates) created per master. The created daughter plates are then immediately infested with YFM larvae.
The day before plates are to be treated, mosquito eggs are placed in Millipore water containing liver powder to begin hatching (4 g. into 400 mL). After the daughter plates are created using the robot, they are infested with 220 μL of the liver powder/larval mosquito mixture (about 1 day-old larvae). After plates are infested with mosquito larvae, a non-evaporative lid is used to cover the plate to reduce drying. Plates are held at room temperature for 3 days prior to grading. After 3 days, each well is observed and scored based on mortality.

Compound | mortality at 50 µg/cm2 [1] | mortality at 50 µg/cm2 [2] | YFM % Control (or Mortality) rating [3]
CC(C)c1cccc(C(=O)Nc2ccc(-c3ncn(-c4ccc(C(F)(F)F)cc4)n3)cc2)c1 [F24, 3-Isopropyl-N-(4-(1-(4-(trifluoromethyl)phenyl)-1H-1,2,4-triazol-3-yl)phenyl)benzamide] | 0% | 50 to 100% | D (No activity noticed in this bioassay)
O=C(Nc1ccc(-c2ncn(-c3ccc(OC(F)(F)F)cc3)n2)cc1)c1ccc(-c2ccccc2)cc1 [F25, N-(4-(1-(4-(trifluoromethoxy)phenyl)-1H-1,2,4-triazol-3-yl)phenyl)-[1,1′-biphenyl]-4-carboxamide] | 0% | 0% | D (No activity noticed in this bioassay)
COc1ccc(C(=O)Nc2ccc(-c3ncn(-c4ccc(OC(F)(F)F)cc4)n3)cc2)cc1 [F26, 4-Methoxy-N-(4-(1-(4-(trifluoromethoxy)phenyl)-1H-1,2,4-triazol-3-yl)phenyl)benzamide] | 50 to 100% | 50 to 100% | D (No activity noticed in this bioassay)
O=C(NCc1ccc(-c2ncn(-c3ccc(OC(F)(F)F)cc3)n2)cc1)c1ccccc1-c1ccccc1 [F27, N-(4-(1-(4-(Trifluoromethoxy)phenyl)-1H-1,2,4-triazol-3-yl)benzyl)biphenyl-2-carboxamide] | 0 to 50% | 50 to 100% | B (More than 0 - Less than 80)
CC(C)c1cccc(C(=O)NCc2ccc(-c3ncn(-c4ccc(OC(F)(F)F)cc4)n3)cc2)c1 [F28, 3-Isopropyl-N-(4-(1-(4-(trifluoromethoxy)phenyl)-1H-1,2,4-triazol-3-yl)benzyl)benzamide] | 50 to 100% | 0% | D (No activity noticed in this bioassay)
Cc1ccc(C(=O)NCc2ccc(-c3ncn(-c4ccc(OC(F)(F)F)cc4)n3)cc2)c(C)c1 [F29, 2,4-Dimethyl-N-(4-(1-(4-(trifluoromethoxy)phenyl)-1H-1,2,4-triazol-3-yl)benzyl)benzamide] | 0% | 0% | D (No activity noticed in this bioassay)
Cc1ccccc1-c1ccccc1C(=O)NCc1ccc(-c2ncn(-c3ccc(OC(F)(F)F)cc3)n2)cc1 [F30, 2′-Methyl-N-(4-(1-(4-(trifluoromethoxy)phenyl)-1H-1,2,4-triazol-3-yl)benzyl)biphenyl-2-carboxamide] | 0 to 50% | 50 to 100% | B (More than 0 - Less than 80)
CC(C)c1ccccc1C(=O)NCc1ccc(-c2ncn(-c3ccc(OC(F)(F)F)cc3)n2)cc1 [F31, 2-Isopropyl-N-(4-(1-(4-(trifluoromethoxy)phenyl)-1H-1,2,4-triazol-3-yl)benzyl)benzamide] | 0% | 0% | D (No activity noticed in this bioassay)
O=C(NCc1ccc(-c2ncn(-c3ccc(OC(F)(F)F)cc3)n2)cc1)c1ccccc1 [F32, N-(4-(1-(4-(trifluoromethoxy)phenyl)-1H-1,2,4-triazol-3-yl)benzyl)benzamide] | 0% | 0% | D (No activity noticed in this bioassay)
Cc1ccc(-c2ccccc2C(=O)NCc2ccc(-c3ncn(-c4ccc(OC(F)(F)F)cc4)n3)cc2)c(C)c1 [F33, 2′,4′-Dimethyl-N-(4-(1-(4-(trifluoromethoxy)phenyl)-1H-1,2,4-triazol-3-yl)benzyl)biphenyl-2-carboxamide] | 0 to 50% | 50 to 100% | A (80-100)
Cc1ccc(Cl)cc1-c1ccccc1C(=O)NCc1ccc(-c2ncn(-c3ccc(OC(F)(F)F)cc3)n2)cc1 [F34, 5′-Chloro-2′-methyl-N-(4-(1-(4-(trifluoromethoxy)phenyl)-1H-1,2,4-triazol-3-yl)benzyl)biphenyl-2-carboxamide] | 0% | 50 to 100% | D (No activity noticed in this bioassay)
Cc1ccc(C)c(-c2ccccc2C(=O)NCc2ccc(-c3ncn(-c4ccc(OC(F)(F)F)cc4)n3)cc2)c1 [F35, 2′,5′-Dimethyl-N-(4-(1-(4-(trifluoromethoxy)phenyl)-1H-1,2,4-triazol-3-yl)benzyl)biphenyl-2-carboxamide] | 0 to 50% | 50 to 100% | B (More than 0 - Less than 80)
Cc1cccc(-c2ccccc2C(=O)NCc2ccc(-c3ncn(-c4ccc(OC(F)(F)F)cc4)n3)cc2)c1C [F36, 2′,3′-Dimethyl-N-(4-(1-(4-(trifluoromethoxy)phenyl)-1H-1,2,4-triazol-3-yl)benzyl)biphenyl-2-carboxamide] | 0 to 50% | 50 to 100% | A (80-100)
Cc1cccc(C)c1-c1ccccc1C(=O)NCc1ccc(-c2ncn(-c3ccc(OC(F)(F)F)cc3)n2)cc1 [F37, 2′,6′-Dimethyl-N-(4-(1-(4-(trifluoromethoxy)phenyl)-1H-1,2,4-triazol-3-yl)benzyl)biphenyl-2-carboxamide] | 0 to 50% | 50 to 100% | A (80-100)
COc1ccc(-c2ccccc2C(=O)NCc2ccc(-c3ncn(-c4ccc(OC(F)(F)F)cc4)n3)cc2)c(C)c1 [F38, 4′-Methoxy-2′-methyl-N-(4-(1-(4-(trifluoromethoxy)phenyl)-1H-1,2,4-triazol-3-yl)benzyl)biphenyl-2-carboxamide] | 0% | 0% | D (No activity noticed in this bioassay)
Cc1ccc(C(C)C)c(C(=O)NCc2ccc(-c3ncn(-c4ccc(OC(F)(F)F)cc4)n3)cc2)c1 [F39, 2-Isopropyl-5-methyl-N-(4-(1-(4-(trifluoromethoxy)phenyl)-1H-1,2,4-triazol-3-yl)benzyl)benzamide] | 0% | 0% | D (No activity noticed in this bioassay)
Cc1cc(F)ccc1-c1ccccc1C(=O)NCc1ccc(-c2ncn(-c3ccc(OC(F)(F)F)cc3)n2)cc1 [F40, 4′-Fluoro-2′-methyl-N-(4-(1-(4-(trifluoromethoxy)phenyl)-1H-1,2,4-triazol-3-yl)benzyl)biphenyl-2-carboxamide] | 50 to 100% | 50 to 100% | D (No activity noticed in this bioassay)
